Test results as given in patent US11992012B2, “Diaminotriazine compounds” (BASF SE, priority 2018, dated 2024).

Key:
Experiment in all cases: greenhouse pre-emergence herbicidal test
Assay type in all cases: in vivo
Conditions in all cases: 250 g/ha, scale 0 to 100
Echinocloa crus-galli = test system: Echinocloa crus-galli
From the text: (§1) The culture containers used were plastic flowerpots containing loamy sand with approximately 3.0% of humus as the substrate. The seeds of the test plants were sown separately for each species.
(§2) For the pre-emergence treatment, the active ingredients, which had been suspended or emulsified in water, were applied directly after sowing by means of finely distributing nozzles. The containers were irrigated gently to promote germination and growth and subsequently covered with transparent plastic hoods until the plants had rooted. This cover caused uniform germination of the test plants, unless this had been impaired by the active ingredients.
(§3) Depending on the species, the plants were kept at 10-25° C. or 20-35° C., respectively.
(§4) The test period extended over 2 to 4 weeks. During this time, the plants were tended, and their response to the individual treatments was evaluated.
(§5) Evaluation was carried out using a scale from 0 to 100. 100 means no emergence of the plants, or complete destruction of at least the aerial moieties, and 0 means no damage, or normal course of growth. A moderate herbicidal activity is given at values of at least 60, a good herbicidal activity is given at values of at least 70, and a very good herbicidal activity is given at values of at least 85.

Alopercurus myosuroides = test system: Alopercurus myosuroides
From the text: as §1, §2, §3, §4, §5

Amaranthus retroflexus = test system: Amaranthus retroflexus
From the text: as §1, §2, §3, §4, §5

Setaria faberi = test system: Setaria faberi
From the text: The culture containers used were plastic flowerpots containing loamy sand with approximately 3.0% of humus as the substrate. The seeds of the test plants were sown separately for each species. For the pre-emergence treatment, the active ingredients, which had been suspended or emulsified in water, were applied directly after sowing by means of finely distributing nozzles. The containers were irrigated gently to promote germination and growth and subsequently covered with transparent plastic hoods until the plants had rooted. This cover caused uniform germination of the test plants, unless this had been impaired by the active ingredients. […] The test period extended over 2 to 4 weeks. During this time, the plants were tended, and their response to the individual treatments was evaluated. Evaluation was carried out using a scale from 0 to 100. 100 means no emergence of the plants, or complete destruction of at least the aerial moieties, and 0 means no damage, or normal course of growth.

| Structure (SMILES) | herbicidal activity (Echinocloa crus-galli) | herbicidal activity (Alopercurus myosuroides) | herbicidal activity (Amaranthus retroflexus) | herbicidal activity (Setaria faberi) |
| --- | --- | --- | --- | --- |
| CC(C)(F)c1nc(N)nc(Nc2c(F)cccc2OCc2ccccc2)n1 [Example 4] | 100% | 100% | 100% | 100% |
| CC(C)(F)c1nc(N)nc(Nc2c(F)c(F)cc(F)c2OCc2ccccc2F)n1 [Example 203] | 100% | 100% |  | 100% |
| COc1ccc(COc2cccc(F)c2Nc2nc(N)nc(C(C)(C)F)n2)cc1 [Example 20] | 100% | 100% | 98% | 95% |
| CC(C)(F)c1nc(N)nc(Nc2c(F)cccc2OC(F)(F)c2ccccc2)n1 [Example 83] | 100% | 100% |  | 100% |
| CC(C)(F)c1nc(N)nc(Nc2c(F)cc(F)cc2OCc2ccccc2)n1 [Example 60] | 100% | 98% | 100% | 100% |
| CCOc1ccc(COc2c(F)ccc(F)c2Nc2nc(N)nc(C(C)(C)F)n2)cc1 [Example 193] | 95% | 80% |  | 100% |
| CC(C)=C(F)c1nc(N)nc(Nc2c(F)ccc(F)c2OCc2ccccc2)n1 [Example 160] |  | 85% |  | 75% |
| CC(C)(F)c1nc(N)nc(Nc2c(F)cccc2OCc2cnc(Cl)s2)n1 [Example 39] | 100% | 90% | 80% | 90% |
| COc1cc(F)cc(COc2cccc(F)c2Nc2nc(N)nc(C(C)(C)F)n2)c1 [Example 54] | 100% | 90% |  |  |
| Nc1nc(Nc2c(F)cccc2OCc2cccc(F)c2)nc(C2(F)CCCC2)n1 [Example 18] | 70% | 70% | 70% | 85% |
| COc1cccc(COc2cc(F)c(F)c(F)c2Nc2nc(N)nc(C(C)(C)F)n2)c1 [Example 98] | 100% | 80% | 90% | 100% |
| CC(C)(F)c1nc(N)nc(Nc2c(OCc3ccccc3)ccc(F)c2F)n1 [Example 108] | 100% | 100% | 100% | 100% |
| COc1ccc(COc2ccc(F)c(F)c2Nc2nc(N)nc(C(C)(C)F)n2)cc1 [Example 186] | 98% | 85% |  |  |
| CC(C)(F)c1nc(N)nc(Nc2c(F)ccc(F)c2OCc2ccsc2)n1 [Example 174] | 100% | 100% |  | 100% |
| CC1(c2nc(N)nc(Nc3c(F)c(F)cc(F)c3OCc3ccccc3)n2)CCC1 [Example 201] | 100% | 100% |  | 100% |
| CC(C)(F)c1nc(N)nc(Nc2c(F)cccc2OCc2ccsc2Cl)n1 [Example 107] | 100% | 75% | 75% | 100% |
| CC(C)(F)c1nc(N)nc(Nc2c(F)c(F)cc(F)c2OCc2ccccc2C2CC2)n1 [Example 218] | 85% | 95% |  | 100% |
| CC(C)(F)c1nc(N)nc(Nc2c(F)c(F)cc(F)c2OCc2ccc(F)cc2)n1 [Example 205] | 100% | 100% |  | 100% |
| Cc1ccccc1COc1c(F)cc(F)c(F)c1Nc1nc(N)nc(C(C)(C)F)n1 [Example 181] | 100% | 98% |  | 100% |
| CC(F)c1nc(N)nc(Nc2c(F)ccc(F)c2OCc2ccccc2)n1 (stereo not shown) [Example 196] | 100% | 98% |  | 100% |
| Nc1nc(Nc2c(F)ccc(F)c2OCc2ccccc2)nc(C(F)C2CC2)n1 (stereo not shown) [Example 189] | 100% | 98% |  | 100% |
| COc1cccc(COc2c(F)cc(F)c(F)c2Nc2nc(N)nc(C(C)(C)F)n2)c1 [Example 164] | 100% | 100% |  | 100% |
| CC(C)(F)c1nc(N)nc(Nc2c(F)cccc2OCc2ccc(Cl)s2)n1 [Example 120] | 100% | 75% |  | 90% |

| Structure (SMILES) | herbicidal activity (Echinocloa crus-galli) | herbicidal activity (Alopercurus myosuroides) | herbicidal activity (Amaranthus retroflexus) | herbicidal activity (Setaria faberi) |
| --- | --- | --- | --- | --- |
| CC(C)(F)c1nc(N)nc(Nc2c(F)c(Br)cc(F)c2OCc2ccccc2)n1 [Example 163] | 100% | 100% |  | 100% |
| COC(C)(C)c1nc(N)nc(Nc2c(F)c(F)cc(F)c2OCc2cccc(C)c2)n1 [Example 227] | 75% | 90% |  | 85% |
| Cc1cccc(COc2c(F)cc(F)c(F)c2Nc2nc(N)nc(C(C)(C)F)n2)c1 [Example 182] | 100% | 100% |  | 100% |
| CC(C)(F)c1nc(N)nc(Nc2c(F)cccc2OCc2ccc(F)c(F)c2)n1 [Example 45] | 80% | 80% |  | 70% |
| CC(C)(F)c1nc(N)nc(Nc2c(F)cccc2OCc2c(F)cccc2Cl)n1 [Example 177] | 100% | 85% |  | 95% |
| Cc1cccc(C)c1COc1c(F)cc(F)c(F)c1Nc1nc(N)nc(C(C)F)n1 (stereo not shown) [Example 255] | 95% | 90% |  | 90% |
| CC(C)c1ccc(COc2cccc(F)c2Nc2nc(N)nc(C(C)(C)F)n2)cc1 [Example 143] |  | 90% | 100% |  |
| COc1cccc(COc2ccc(F)c(F)c2Nc2nc(N)nc(C(C)(C)F)n2)c1 [Example 185] | 100% | 98% |  | 100% |
| CC(C)(C)c1nc(N)nc(Nc2c(F)cccc2OCc2ccccc2)n1 [Example 33] | 60% | 75% |  |  |
| COc1cccc(COc2c(F)cc(F)c(F)c2Nc2nc(N)nc(C(C)F)n2)c1 (stereo not shown) [Example 211] | 100% |  | 100% | 100% |
| CC(C)(F)c1nc(N)nc(Nc2c(F)ccc(F)c2OC(F)(F)c2ccccc2)n1 [Example 142] | 100% |  | 100% | 100% |
| Nc1nc(Nc2c(F)cccc2OCc2ccccc2)nc(C2(F)CC2)n1 [Example 184] | 98% | 85% | 95% |  |
| Nc1nc(Nc2c(F)cccc2OCc2ccccc2F)nc(C2(F)CCCC2)n1 [Example 19] |  | 70% | 80% | 85% |
| CCc1ccc(COc2cccc(F)c2Nc2nc(N)nc(C(C)(C)F)n2)cc1 [Example 94] |  | 100% | 70% |  |
| Nc1nc(Nc2c(F)ccc(F)c2OCc2ccccc2)nc(C2(F)CC2)n1 [Example 187] | 100% | 85% |  | 100% |
| COc1ccc(COc2c(F)cc(F)c(F)c2Nc2nc(N)nc(C(C)(C)F)n2)cc1 [Example 180] | 100% | 90% |  | 100% |
| CC(C)C(F)c1nc(N)nc(Nc2c(F)cccc2OCc2ccccc2)n1 (stereo not shown) [Example 65] | 95% | 95% |  |  |
| COC(C)(C)c1nc(N)nc(Nc2c(F)ccc(F)c2OCc2ccccc2)n1 [Example 135] | 100% |  | 100% | 100% |
| CC(C)(F)c1nc(N)nc(Nc2c(F)cccc2OCc2c(Cl)cccc2Cl)n1 [Example 78] | 100% | 100% |  | 75% |
| CCOc1cccc(COc2cccc(F)c2Nc2nc(N)nc(C(C)(C)F)n2)c1 [Example 149] | 75% | 85% |  | 90% |
| CC(C)(F)c1nc(N)nc(Nc2c(F)cccc2OCc2cccs2)n1 [Example 154] | 100% |  | 100% | 100% |
| COCc1ccc(COc2c(F)cc(F)c(F)c2Nc2nc(N)nc(C(C)(C)F)n2)cc1 [Example 220] | 95% | 98% |  | 90% |
